ChEMBL document CHEMBL3621056, “Discovery of mitochondria-targeting berberine derivatives as the inhibitors of proliferation, invasion and migration against rat C6 and human U87 glioma cells” (Medchemcomm, 2015)
pIC50: −log10 of the molar value. The source made the active and inactive calls. The calls are words filed in the database; no cut-off is given here.

Columns and labels:
[1] = Cytotoxicity against human U87 cells assessed as cell survival rate at 10 uM after 24 hrs by MTT assay relative to control; format: functional, U-87MG ATCC; details: U-87 MG, read-out: Survival
[2] = (§1) Antimigratory activity in human U87 cells at 0.5 uM after 24 hrs by Transwell assay relative to control; format: functional, U-87MG ATCC
C6 [3] = test: Antiinvasive activity in rat C6 cells at 0.5 uM after 24 hrs by Transwell assay relative to control; format: functional
[4] = (§2) Cytotoxicity against human U87 cells assessed as inhibition of cell proliferation after 24 hrs by MTT assay; format: functional, cell-based, U-87MG ATCC; details: U-87 MG
U-87MG ATCC [5] = test: as §2; format: functional, cell-based
[6] = Drug uptake in mitochondria of rat C6 cells at 1 uM after 24 hrs by Mitotracker Green FM staining-based laser confocal microscopic analysis; format: ADME; details: c6, 24 h
C6 [7] = test: Antimigratory activity in rat C6 cells at 0.5 uM after 24 hrs by Transwell assay relative to control; format: functional
[8] = Drug uptake in mitochondria of human U87 cells at 1 uM after 24 hrs by Mitotracker Green FM staining-based laser confocal microscopic analysis; format: ADME; details: u-87mg atcc
C6 [9] = test: Cytotoxicity against rat C6 cells assessed as inhibition of cell proliferation after 24 hrs by MTT assay; format: functional, cell-based; details: for pIC50: C6, 24 h
[10] = n-octanol/water partition coefficient, log P of the compound by HPLC analysis; format: physicochemical
[11] = (§3) Antiinvasive activity in human U87 cells at 0.5 uM after 24 hrs by Transwell assay relative to control; format: functional, U-87MG ATCC
C6 [12] = test: Cytotoxicity against rat C6 cells assessed as cell survival rate at 10 uM after 24 hrs by MTT assay relative to control; format: functional; details: C6, 24 h, read-out: Survival
C6 [13] = test: Induction of intracellular reactive oxygen species formation in rat C6 cells at 2 uM after 24 hrs by DHE dye-based inverted fluorescent microscopic analysis; format: functional, cell-based
[14] = (§4) Antiinvasive activity in human U87 cells at 2.5 uM after 24 hrs by Transwell assay relative to control; format: functional, U-87MG ATCC
U-87MG ATCC [15] = test: Induction of intracellular reactive oxygen species formation in human U87 cells at 2 uM after 24 hrs by DHE dye-based inverted fluorescent microscopic analysis; format: functional, cell-based
[16] = (§5) Antimigratory activity in human U87 cells at 2.5 uM after 24 hrs by Transwell assay relative to control; format: functional, U-87MG ATCC
[17] = Cytotoxicity against human U87 cells assessed as cell survival rate up to 20 uM after 24 hrs by MTT assay relative to control; format: functional, U-87MG ATCC
[18] = Cytotoxicity against human U87 cells assessed as growth inhibition after 72 hrs by SRB assay; format: functional, cell-based, U-87MG ATCC; details: U-87 MG
[19] = Antiinvasive activity in human U87 cells at 2 uM after 24 hrs by Transwell assay relative to control; format: functional, U-87MG ATCC
[20] = Antimigratory activity in human U87 cells at 2 uM after 24 hrs by Transwell assay relative to control; format: functional, U-87MG ATCC
U-87MG ATCC [21] = test: as §5; format: functional
C6 [22] = test: Antimigratory activity in rat C6 cells at 5 uM after 24 hrs by Transwell assay; format: functional, cell-based
C6 [23] = test: Antiinvasive activity in rat C6 cells at 5 uM after 24 hrs by Transwell assay; format: functional, cell-based
U-87MG ATCC [24] = test: Antimigratory activity in human U87 cells at 5 uM after 24 hrs by Transwell assay; format: functional, cell-based
U-87MG ATCC [25] = test: Antiinvasive activity in human U87 cells at 5 uM after 24 hrs by Transwell assay; format: functional, cell-based
C6 [26] = test: Antimigratory activity in rat C6 cells at 1 uM after 24 hrs by Transwell assay; format: functional, cell-based
C6 [27] = test: Cytotoxicity against rat C6 cells assessed as cell survival rate at 20 uM after 24 hrs by MTT assay relative to control; format: functional; details: C6, 24 h, read-out: Survival
U-87MG ATCC [28] = test: as §4; format: functional
C6 [29] = test: Antiinvasive activity in rat C6 cells at 1 uM after 24 hrs by Transwell assay; format: functional, cell-based
[30] = Cytotoxicity against human U87 cells assessed as cell survival rate at 20 uM after 24 hrs by MTT assay relative to control; format: functional, U-87MG ATCC; details: U-87 MG, read-out: Survival
U-87MG ATCC [31] = test: as §1; format: functional
U-87MG ATCC [32] = test: as §3; format: functional

| SMILES | viability at 10 µM [1] [%] | Activity (C6 [3]) | pIC50 [4] | inhibition (U-87MG ATCC [5]) | Drug uptake [6] | Activity (C6 [7]) | Drug uptake [8] | inhibition (C6 [9]) | pIC50 (C6 [9]) | logP [10] | viability at 10 µM (C6 [12]) [%] | Activity (C6 [13]) | Activity [14] [%] | Activity (U-87MG ATCC [15]) | Activity [16] [%] | other results |
| --- | --- | --- | --- | --- | --- | --- | --- | --- | --- | --- | --- | --- | --- | --- | --- | --- |
| CCCCCCCCCCCCCCCCc1c2[n+](cc3c(OC)c(OC)ccc13)CCc1cc3c(cc1-2)OCO3.[I-] | < 20 | >30% | 5.49 | Dose-dependent effect | Active | >30% | Active | Dose-dependent effect | 5.78 | 3.24 | < 20 | – | – | – | – | Activity [2]: >30%; Activity [11]: >30% |
| CCCCCCCCCCCCCCCCCCOc1c(OC)ccc2cc3[n+](cc12)CCc1cc2c(cc1-3)OCO2.[Br-] | – | >30% | 4.65 | Dose-dependent effect | – | >30% | – | Dose-dependent effect | 5.35 | 3.01 | – | inactive | >30 | inactive | >30 | – |
| CCCCCCCCCCCCCCCCOc1c(OC)ccc2cc3[n+](cc12)CCc1cc2c(cc1-3)OCO2.[Br-] | – | >60% | 4.82 | Dose-dependent effect | Active | >60% | Active | Dose-dependent effect | 5.21 | 3.41 | – | – | >60 | – | >60 | Survival [17]: 38.95% |
| CCc1c2c(nc3ccc(OC(=O)N4CCC(N5CCCCC5)CC4)cc13)-c1cc3c(c(=O)n1C2)COC(=O)[C@]3(O)CC [IRINOTECAN] | – | – | – | – | – | – | – | – | – | – | – | – | – | – | – | pIC50 [18]: < 3.60 |
| CCCCCCCCCCCCCCCCCCc1c2[n+](cc3c(OC)c(OC)ccc13)CCc1cc3c(cc1-2)OCO3.[I-] | < 20 | >30% | 5.24 | Dose-dependent effect | – | >30% | – | Dose-dependent effect | 5.63 | 3.22 | < 20 | inactive | >30 | inactive | >30 | – |
| CCCCCCCCCCCCOc1c(OC)ccc2cc3[n+](cc12)CCc1cc2c(cc1-3)OCO2.[Br-] | – | >60% | 5.34 | Dose-dependent effect | Active | >60% | Active | Dose-dependent effect | 5.91 | 3.43 | – | Active | – | Active | – | Activity [19]: >60%; Activity [20]: >60% |
| CCCCCCCCCCOc1c(OC)ccc2cc3[n+](cc12)CCc1cc2c(cc1-3)OCO2 | – | Active | 5.24 | Dose-dependent effect | – | Active | – | Dose-dependent effect | 5.53 | 2.26 | – | Active | – | Active | – | Activity (U-87MG ATCC [21]): Active |
| COc1ccc2cc3[n+](cc2c1OC)CCc1cc2c(cc1-3)OCO2.[Cl-] [BERBERINE CHLORIDE] | – | – | < 4.70 | – | Active | – | Active | – | < 4.70 | -1.68 | – | inactive | – | inactive | – | Activity (C6 [22]): Active; Activity (C6 [23]): Active; Activity (U-87MG ATCC [24]): Active; Activity (U-87MG ATCC [25]): Active |
| COc1ccc2c(Cc3ccccc3)c3[n+](cc2c1OC)CCc1cc2c(cc1-3)OCO2 | – | – | < 4.70 | Dose-dependent effect | – | – | – | Dose-dependent effect | 4.84 | -0.73 | – | inactive | – | inactive | – | Activity (C6 [26]): inactive; viability at 20 µM (C6 [27]): 37.2%; Activity (U-87MG ATCC [28]): inactive; Activity (C6 [29]): inactive; viability at 20 µM [30]: 67.2%; Activity (U-87MG ATCC [21]): inactive |
| CCCCCCCCCCCCc1c2[n+](cc3c(OC)c(OC)ccc13)CCc1cc3c(cc1-2)OCO3.[I-] | < 20 | >60% | 5.51 | Dose-dependent effect | Active | >60% | Active | Dose-dependent effect | 5.78 | 3.66 | < 20 | Active | – | Active | – | Activity [2]: >60%; Activity [11]: >60% |
| Cn1nnc2c(C(N)=O)ncn2c1=O [TEMOZOLOMIDE] | – | – | – | – | – | – | – | – | – | – | – | – | – | – | – | pIC50 [18]: 4.71 |
| CCCCCCCCCCc1c2[n+](cc3c(OC)c(OC)ccc13)CCc1cc3c(cc1-2)OCO3 | < 20 | Active | 5.44 | Dose-dependent effect | – | Active | – | Dose-dependent effect | 5.95 | 2.37 | < 20 | Active | – | Active | – | Activity (U-87MG ATCC [31]): Active; Activity (U-87MG ATCC [32]): Active |
| COc1ccc2cc3[n+](cc2c1OCc1ccccc1)CCc1cc2c(cc1-3)OCO2.[Br-] | – | >30% | < 4.70 | Dose-dependent effect | – | >30% | – | Dose-dependent effect | 4.94 | -0.86 | – | Active | >30 | Active | >30 | – |
